Assay results reported in US9169241B2, “Quinolinyloxyphenylsulfonamides” (Max-Planck-Gesellschaft Zur Forderung der Wissenschaften …, priority 2009, dated 2015).
Where two headings read alike, the source gives them in different places.

What was measured:
[1] = system: A172; assay: Cell vitality assay (ATP assay, CellTiter-Glo); assay type: cell-based; conditions: Homo sapiens, A 172; A172, 72 h; Table IIa; read-out: IC50 ATP-Assay after 72 h A172
In short: (§1)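 1000 cells/well were exposed to compound at 12.5 μM down to 0.195 μM (twofold steps) or DMSO for 72 h. ATP was then measured by luminescence after 10 min reagent lysis at room temperature. IC50 was taken as the concentration giving 50% of the DMSO-control ATP level.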

[2] = system: Hs578T; assay: Cell vitality assay (ATP assay, CellTiter-Glo); assay type: cell-based; conditions: Homo sapiens, Hs-578T; HS578T cell line, 72 h; Table Ib; read-out: IC50 ATP-Assay HS578T after 72 h
In short: as §1

[3] = system: SF126; assay: Cell vitality assay (ATP assay, CellTiter-Glo); assay type: cell-based; conditions: Homo sapiens, SF-126; SF126, 72 h; Table IIa; read-out: IC50 ATP-Assay after 72 h SF126
In short: as §1

[4] = system: U118; assay: Cell vitality assay (ATP assay, CellTiter-Glo); assay type: cell-based; conditions: U118, 72 h; Table IIa; read-out: IC50 ATP-Assay after 72 h U118
In short: as §1

[5] = system: Hs578T; assay: Wound healing migration assay; assay type: cell-based; conditions: Homo sapiens, Hs-578T; HS578T cell line; Table Ib
In short: (§2)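 Cells seeded at 150000/24 well, grown to monolayer overnight, scratched with a pipette tip, then treated with compound at 12.5, 6.25 or 3.125 μM versus DMSO. Stopped by crystal violet fixation at 48-72 h once control wounds closed; IC50 taken as 50% wound size between t0 and t48 or t72.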

[6] = system: indicated cell line; assay: Wound healing migration assay (Table IV); assay type: cell-based; conditions: compounds at 12.5, 6.25, 3.125 μM, 48 h-72 h
In short: as §2

[7] = system: A172; assay: Matrigel outgrowth assay/branching assay; assay type: cell-based; conditions: Homo sapiens, A 172, Table Vb, read-out: Total branching inhibition in Matrigel A172
In short: (§3)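 Cells (5000/well) were seeded onto polymerized 3 mg/ml Matrigel with compound at 3.125, 1.56 or 0.78 μM, or DMSO. Imaging by inverted microscopy at 48, 72 and 96 h scored invasive branching. Only concentrations giving total branching inhibition counted as positive.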

[8] = system: Hs578T; assay: Matrigel outgrowth assay/branching assay; assay type: cell-based; conditions: Homo sapiens, Hs-578T; HS578T cell line; Table Ib; read-out: Total branching inhibition in Matrigel HS578T
In short: as §3

[9] = system: SF126; assay: Matrigel outgrowth assay/branching assay; assay type: cell-based; conditions: Homo sapiens, SF-126, Table Vb, read-out: Total branching inhibition in Matrigel SF126
In short: as §3

[10] = system: U118; assay: Matrigel outgrowth assay/branching assay; assay type: cell-based; conditions: Table Vb, read-out: Total branching inhibition in Matrigel U118
In short: as §3

[11] = system: C8161; assay: Apoptosis assay (Cellomics, nucleus condensation); assay type: cell-based; conditions: Homo sapiens, Table III, read-out: Apoptosis induction in C8161
In short: (§4)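 Apoptosis scored by automated microscopy of Hoechst-stained live nuclei, 24 and 48 h after treatment with 0.39–12.5 μM compound or DMSO.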

[12] = system: Hs578T; assay: Apoptosis assay (Cellomics, nucleus condensation); assay type: cell-based; conditions: Homo sapiens, Hs-578T, Table III, read-out: Apoptosis induction in Hs578T
In short: as §4

[13] = system: SF126; assay: Apoptosis assay (Cellomics, nucleus condensation); assay type: cell-based; conditions: Homo sapiens, SF-126, Table III, read-out: Apoptosis induction in SF126
In short: as §4

[14] = system: SF763; assay: Apoptosis assay (Cellomics, nucleus condensation); assay type: cell-based; conditions: Table III, read-out: Apoptosis induction in SF763
In short: as §4

[15] = system: U118; assay: Apoptosis assay (Cellomics, nucleus condensation); assay type: cell-based; conditions: Table III, read-out: Apoptosis induction in U118
In short: as §4

[16] = system: U138; assay: Apoptosis assay (Cellomics, nucleus condensation); assay type: cell-based; conditions: Table III, read-out: Apoptosis induction in U138
In short: as §4

[17] = system: tumor cell; assay: Matrigel outgrowth assay/branching assay (Table Va); assay type: cell-based
In short: as §3

[18] = system: cells; assay: Boyden chamber migration assay (Table VI); assay type: cell-based; conditions: Homo sapiens, Hs-578T, 16 h, Hs578T cells; 16 h migration
In short: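 20000 cells seeded in the upper compartment in 0% FCS plus 0.1% BSA and left 16 h to migrate through […] membrane toward 10% FCS medium below. Non-migrated cells swabbed off; cells on the filter underside fixed and counted.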

[19] = system: viable cells in culture; assay: Cell viability assay at 10 μM (CellTiter-Glo, Table VII); assay type: cell-based; conditions: compound 10 μM, 72 h;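 further: graded A 0-20%; B 21-40%; C 41-60%; D over 60% viable cells relative to DMSO control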
In short: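 Viable cell number was measured with the CellTiter-Glo Luminescent Cell Viability Assay (Promega), following the manufacturer's protocol, which quantifies ATP as a marker of metabolically active cells. In 96-well plates, 1000 cells/well in 100 μl medium were exposed to compound at 10 μM, or to DMSO control, for 72 h. Values were calculated relative to DMSO-control ATP.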

[20] = Homo sapiens, A 172, A172 cells, read-out: IC50 Wound healing Assay A172
[21] = Homo sapiens, SF-126, SF126 cells, read-out: IC50 Wound healing Assay SF126
[22] = U118 cells, read-out: IC50 Wound healing Assay U118

Q: Which IC50 [1] does the source give for COc1cc2c(Oc3ccc(NS(=O)(=O)c4ccccc4C(F)(F)F)cc3F)ccnc2cc1OCCCN1CCCCC1 [Example 4, N-{3-Fluoro-4-[6-methoxy-7-(3-piperidin-1-yl-propoxy)-quinolin-4-yloxy]-phenyl}-2-trifluoromethyl-benzenesulfonamide] here?
A: Its IC50 is ≤ 12.5 µM.

Q: And the IC50 [2]?
A: Its IC50 is ≤ 12.5 µM.

Q: And the IC50 [3]?
A: Its IC50 is ≤ 12.5 µM.

Q: What about the IC50 [4] of the same molecule?
A: Its IC50 is ≤ 12.5 µM.

Q: What about the IC50 [5] of the same molecule?
A: The IC50 was ≤ 12.5 µM.

Q: And the IC50 [6, 20]?
A: Its IC50 is ≤ 12.5 µM.

Q: What about the IC50 [6, 21] of the same molecule?
A: The IC50 was ≤ 12.5 µM.

Q: And the IC50 [6, 22]?
A: The IC50 was ≤ 12.5 µM.

Q: What about the IC100 [7] of the same molecule?
A: The IC100 was > 12.5 µM.

Q: What about the IC50 [8] of the same molecule?
A: The IC50 was ≤ 10 µM.

Q: What about the IC100 [9] of the same molecule?
A: The IC100 was ≤ 12.5 µM.

Q: What about the IC100 [10] of the same molecule?
A: Its IC100 is ≤ 12.5 µM.

Q: What about the melting point of the same molecule?
A: Its melting point is 173 to 175 °C.

Q: Which results are given for COc1cc2c(Oc3ccc(NS(=O)(=O)c4cc(F)ccc4F)cc3F)ccnc2cc1OCCCCN1CCOCC1 [Example 83, 2,5-Difluoro-N-{3-fluoro-4-[6-methoxy-7-(4-morpholin-4-yl-butoxy)-quinolin-4-yloxy]-phenyl}-benzenesulfonamide]?
A: IC50 [11]: ≤ 12.5 µM; IC50 [12]: ≤ 12.5 µM; IC50 [13]: ≤ 12.5 µM; IC50 [14]: ≤ 12.5 µM; IC50 [15]: ≤ 12.5 µM; IC50 [16]: ≤ 12.5 µM; IC50 ([6]; Homo sapiens, C8161 cells, read-out: IC50 Wound healing Assay C8161): ≤ 12.5 µM; IC50 ([6]; SF763 cells, read-out: IC50 Wound healing Assay SF763): ≤ 12.5 µM; IC50 [8]: ≤ 10 µM; IC50 ([17]; Homo sapiens, C8161 cells, read-out: Total branching inhibition in Matrigel C8161): ≤ 5 µM; IC50 ([17]; Homo sapiens, Hs-578T, Hs578T cells, read-out: Total branching inhibition in Matrigel Hs578T): ≤ 5 µM; IC50 ([17]; U118 cells, read-out: Total branching inhibition in Matrigel U118): ≤ 5 µM; IC50 ([17]; U138 cells, read-out: Total branching inhibition in Matrigel U138): ≤ 5 µM; IC50 [18]: ≤ 5 µM; viability at 10 µM ([19]; Homo sapiens, HCT-116, HCT116 def, read-out: percentage (%) of viable cells HCT 116def): 21 to 40%; viability at 10 µM ([19]; Homo sapiens, HCT-116, HCT116 wt, read-out: percentage (%) of viable cells HCT 116wt): 0 to 20%; viability at 10 µM ([19]; Homo sapiens, HT-29, HT29, read-out: percentage (%) of viable cells HT29): 0 to 20%; viability at 10 µM ([19]; Homo sapiens, NCI-H358, H358, read-out: percentage (%) of viable cells H358): 0 to 20%; viability at 10 µM ([19]; Homo sapiens, NCI-H1650, H1650, read-out: percentage (%) of viable cells H1650): 21 to 40%; viability at 10 µM ([19]; Homo sapiens, NCI-H1666, H1666, read-out: percentage (%) of viable cells H1666): 21 to 40%; viability at 10 µM ([19]; Homo sapiens, NCI-H1975, H1975, read-out: percentage (%) of viable cells H1975): 41 to 60%; viability at 10 µM ([19]; Homo sapiens, NCI-H1993, H1993, read-out: percentage (%) of viable cells H1993): 0 to 20%; viability at 10 µM ([19]; Homo sapiens, A549, read-out: percentage (%) of viable cells A549): 21 to 40%; viability at 10 µM ([19]; Homo sapiens, HCC827, read-out: percentage (%) of viable cells HCC827): 0 to 20%; viability at 10 µM ([19]; Homo sapiens, SW480, read-out: percentage (%) of viable cells SW480): 21 to 40%; viability at 10 µM ([19]; RKO, read-out: percentage (%) of viable cells RKO): > 60%; melting point: 156 to 158 °C

Q: For COc1cc2c(Oc3ccc(NS(=O)(=O)c4cc(F)ccc4F)cc3F)ccnc2cc1OCCCN1CCCCC1C (stereo not drawn) [Example 151, 2,5-Difluoro-N-(3-fluoro-4-{6-methoxy-7-[3-(2-methyl-piperidin-1-yl)-propoxy]-quinolin-4-yloxy}-phenyl)-benzenesulfonamide], which IC50 [1] is on record?
A: Its IC50 is ≤ 12.5 µM.

Q: What about the IC50 [2] of the same molecule?
A: Its IC50 is ≤ 12.5 µM.

Q: What about the IC50 [3] of the same molecule?
A: Its IC50 is ≤ 12.5 µM.

Q: What about the IC50 [4] of the same molecule?
A: The IC50 was ≤ 12.5 µM.

Q: And the IC50 [5]?
A: Its IC50 is ≤ 12.5 µM.

Q: What about the IC50 [6, 20] of the same molecule?
A: Its IC50 is ≤ 12.5 µM.

Q: What about the IC50 [6, 21] of the same molecule?
A: Its IC50 is ≤ 12.5 µM.

Q: And the IC50 [6, 22]?
A: Its IC50 is ≤ 12.5 µM.

Q: What about the IC100 [7] of the same molecule?
A: The IC100 was ≤ 12.5 µM.

Q: And the IC50 [8]?
A: The IC50 was ≤ 10 µM.

Q: And the IC100 [9]?
A: Its IC100 is ≤ 12.5 µM.

Q: And the IC100 [10]?
A: Its IC100 is ≤ 12.5 µM.

Q: And the melting point?
A: The melting point was 120 to 122 °C.

Q: Which IC50 [1] does the source give for COc1cc2c(Oc3ccc(NS(=O)(=O)c4cc(F)ccc4F)cc3F)ccnc2cc1OCCCN(C)C [Example 177, N-{4-[7-(3-Dimethylamino-propoxy)-6-methoxy-quinolin-4-yloxy]-3-fluoro-phenyl}-2,5-difluoro-benzenesulfonamide] here?
A: The IC50 was ≤ 12.5 µM.

Q: And the IC50 [2]?
A: Its IC50 is ≤ 12.5 µM.

Q: And the IC50 [3]?
A: The IC50 was ≤ 12.5 µM.

Q: What about the IC50 [4] of the same molecule?
A: Its IC50 is ≤ 12.5 µM.

Q: And the IC50 [5]?
A: The IC50 was ≤ 12.5 µM.

Q: What about the IC50 [6, 20] of the same molecule?
A: The IC50 was ≤ 12.5 µM.

Q: And the IC50 [6, 21]?
A: Its IC50 is ≤ 12.5 µM.

Q: And the IC50 [6, 22]?
A: Its IC50 is ≤ 12.5 µM.

Q: What about the IC100 [7] of the same molecule?
A: The IC100 was ≤ 12.5 µM.

Q: What about the IC50 [8] of the same molecule?
A: The IC50 was ≤ 10 µM.

Q: And the IC100 [9]?
A: The IC100 was ≤ 12.5 µM.

Q: And the IC100 [10]?
A: The IC100 was ≤ 12.5 µM.

Q: And the melting point?
A: The melting point was 108 to 110 °C.
